From ChEMBL document CHEMBL5727960, “Wee-1 inhibiting pyrazolopyrimidinone compounds” (2020)

Biological target: Wee1-like protein kinase (Homo sapiens, UniProt P30291)
Assay: Kinase Activity Assay: All reactions took place in 60 μL volumes in reaction buffer containing 40 mM Tris-HCl and 20 mM magnesium chloride, supplemented with 0.1 mg/mL bovine serum albumin and 2 mM DTT. Compounds were serially diluted in buffer and 5 μL of each concentration pipetted into a white 384 well plate (Sigma Aldrich M6186). A 5 μL aliquot of the Wee-1 enzyme was added to each well and the plate centrifuged for 1 min to ensure mixing of the enzyme and inhibitor. The plate was incubated at room temperature for 30 minutes before the addition of 2.0 μg/mL of substrate and 30 μM ATP in a 5 μL aliquot. The plate was centrifuged for one minute and incubated for 1 h at RT. 15 μL of ADP-Glo stop reagent was added to each well to quench the reaction and deplete unconverted ATP. The plate was incubated for a further 40 min in the dark at RT. 30 μL of ADP-Glo kinase detection reagent was added to each well, converting ADP to ATP, […]. The plate was shaken for 1 min, and incubated in the dark for an additional hour.

Sequence of Wee1-like protein kinase (P30291 whole entry): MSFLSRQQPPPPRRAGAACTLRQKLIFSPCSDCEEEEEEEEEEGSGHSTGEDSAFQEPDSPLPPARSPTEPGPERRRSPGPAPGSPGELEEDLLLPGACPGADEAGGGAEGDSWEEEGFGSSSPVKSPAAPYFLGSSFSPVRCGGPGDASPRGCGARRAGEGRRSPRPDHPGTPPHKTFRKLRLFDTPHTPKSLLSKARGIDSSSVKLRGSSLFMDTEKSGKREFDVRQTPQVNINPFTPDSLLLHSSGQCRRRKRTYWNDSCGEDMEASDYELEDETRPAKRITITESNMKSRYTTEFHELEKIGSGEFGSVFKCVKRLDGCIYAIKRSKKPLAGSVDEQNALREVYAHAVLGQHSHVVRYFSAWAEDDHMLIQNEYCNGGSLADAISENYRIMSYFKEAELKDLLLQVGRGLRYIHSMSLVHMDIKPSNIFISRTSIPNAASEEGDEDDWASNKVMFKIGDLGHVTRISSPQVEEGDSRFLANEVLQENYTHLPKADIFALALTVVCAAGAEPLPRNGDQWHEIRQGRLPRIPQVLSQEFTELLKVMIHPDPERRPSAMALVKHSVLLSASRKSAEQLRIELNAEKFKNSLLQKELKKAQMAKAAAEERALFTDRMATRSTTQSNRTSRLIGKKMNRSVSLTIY

IC50: 0.8 nM
Compound: C=CCn1c(=O)c2cnc(Nc3ccc(N4CCOCC4)nc3)nc2n1-c1cccc(N=S(C)(C)=O)n1
